# Tested on: tongue of the test subject
# Test: Cold sensation threshold on tongue, impregnated filter paper
# Assay type: in vivo, human
# Conditions: filter paper 1 × 1 cm on tongue, 30 sec, presence or absence of cooling effect
row,Compound,Cold Sensation Threshold on Tongue
1,Cc1ccc(NC(=O)C2(C(C)C)CCCCCC2)cc1O [N-(3′-hydroxy-4′-methylphenyl)-1-isopropylcycloheptanecarboxamide],1 µg
2,CC1CCC(C(C)C)C(C(=O)Nc2ccc([N+](=O)[O-])cc2)C1 (stereo not drawn) [N-(4′-nitrophenyl)-2-isopropyl-5-methylcyclohexanecarboxamide],0.3 µg
3,Cc1ccc(NC(=O)C2CC(C)CCC2C(C)C)cc1O (stereo not drawn) [N-(3′-hydroxy-4′-methylphenyl)-2-isopropyl-5-methylcyclohexanecarboxamide],0.1 µg
4,"Cc1ccc(C)c(NC(=O)C2C3CCC(C3)C2(C)C)c1 (stereo not drawn) [N-(2′,5′-dimethylphenyl)-3,3-dimethylbicyclo[2.2.1]heptane-2-carboxamide]",20 µg
5,CC1CCC(C(C)C)C(C(=O)NCc2ccccc2)C1 (stereo not drawn) [N-phenylmethyl-2-isopropyl-5-methylcyclohexanecarboxamide],20 µg
6,CC1CCC(C(C)C)C(C(=O)Nc2ccc(O)cc2)C1 (stereo not drawn) [N-(4′-hydroxyphenyl)-2-isopropyl-5-methylcyclohexanecarboxamide],1 µg
7,COc1ccc(NC(=O)C2CC(C)CCC2C(C)C)cc1 (stereo not drawn) [N-(4′-methoxyphenyl)-2-isopropyl-5-methylcyclohexanecarboxamide],0.1 µg
8,CCCCC1C2C=CC(C2)C1C(=O)Nc1ccc(OC)cc1C (stereo not drawn) [N-(2′-methyl-4′-methoxyphenyl)-3-n-butylbicyclo[2.2.1]hept-5-ene-2-carboxamide],1 µg
9,"Cc1ccc(NC(=O)C2(C(C)C)CCCCCC2)cc1C [N-(3′,4′-dimethylphenyl)-1-isopropylcycloheptanecarboxamide]",15 µg
10,COc1ccc(NC(=O)C2C3C=CC(C3)C2CC(C)C)cc1O (stereo not drawn) [N-(3′-hydroxy-4′-methoxyphenyl)-3-isobutylbicyclo[2.2.1]hept-5-ene-2-carboxamide],8 µg
11,CC1CCC(C(C)C)C(C(=O)Nc2ccc(F)cc2)C1 (stereo not drawn) [N-(4′-fluorophenyl)-2-isopropyl-5-methylcyclohexanecarboxamide],0.5 µg
12,"COc1ccc(NC(=O)C2C3C=CC(C3)C2CC(C)C)c(OC)c1 (stereo not drawn) [N-(2′,4′-dimethoxyphenyl)-3-isobutylbicyclo[2.2.1]hept-5-ene-2-carboxamide]",1 µg
13,"COc1ccc(NC(=O)C2C3CCC(C3)C2(C)C)cc1 (stereo not drawn) [N-(4′-methoxyphenyl)-3,3-dimethylbicyclo[2.2.1]heptane-2-carboxamide]",20 µg
14,CC1CCC(C(C)C)C(C(=O)Nc2ccccc2)C1 (stereo not drawn) [N-phenyl-2-isopropyl-5-methylcyclohexanecarboxamide],20 µg
15,CC(C)C1(C(=O)Nc2cccc(O)c2)CCCCCC1 [N-(3′-hydroxyphenyl)-1-isopropylcycloheptanecarboxamide],10 µg
16,CC1CCC(C(C)C)C(C(=O)Nc2ccccc2O)C1 (stereo not drawn) [N-(2′-hydroxyphenyl)-2-isopropyl-5-methylcyclohexanecarboxamide],0.5 µg
17,COc1ccc(NC(=O)C2C3C=CC(C3)C2CC(C)C)c(C)c1 (stereo not drawn) [N-(2′-methyl-4′-methoxyphenyl)-3-isobutylbicyclo[2.2.1]hept-5-ene-2-carboxamide],1 µg
18,"COc1ccc(NC(=O)C2(C(C)C)CCCCCC2)cc1OC [N-(3′,4′-dimethoxyphenyl)-1-isopropylcycloheptanecarboxamide]",5 µg

row,Compound,Cold Sensation Threshold on Tongue
1,"Cc1ccc(NC(=O)C2(C(C)C)CCCCCC2)c(C)c1 [N-(2′,4′-dimethylphenyl)-1-isopropylcycloheptanecarboxamide]",15 µg
2,CCOC(=O)c1ccc(NC(=O)C2CC(C)CCC2C(C)C)cc1 (stereo not drawn) [N-(4′-ethoxycarbonylphenyl)-2-isopropyl-5-methylcyclohexanecarboxamide],5 µg
3,COc1ccc(NC(=O)C2C3C=CC(C3)C2CC(C)C)cc1 (stereo not drawn) [N-(4′-methoxyphenyl)-3-isobutylbicyclo[2.2.1]hept-5-ene-2-carboxamide],4 µg
4,"Cc1ccc(NC(=O)C(C)(C(C)C)C(C)C)c(C)c1 [N-(2′,4′-dimethylphenyl)-2-isopropyl-2,3-dimethylbutyramide]",1 µg
5,COc1ccc(NC(=O)C2(C(C)C)CCCCCC2)c(C)c1 [N-(4′-methoxy-2′-methylphenyl)-1-isopropylcycloheptanecarboxamide],0.2 µg
6,CC1CCC(C(C)C)C(C(=O)Nc2cccc3ccccc23)C1 (stereo not drawn) [N-(1′-naphthyl)-2-isopropyl-5-methylcyclohexanecarboxamide],6 µg
7,COc1ccc(NC(=O)C2C3CCC(C3)C2C(C)C)cc1 (stereo not drawn) [N-(4′-methoxyphenyl)-3-isopropylbicyclo[2.2.1]heptane-2-carboxamide],15 µg
8,"Cc1ccc(C)c(NC(=O)C(C)(CC(C)C)C(C)C)c1 (stereo not drawn) [N-(2′,5′-dimethylphenyl)-2-isopropyl-2,4-dimethylpentanamide]",5 µg
9,CCC1(C(=O)Nc2ccc(OC)cc2)CCCCCC1C (stereo not drawn) [N-(4′-methoxyphenyl)-1-ethyl-2-methylcycloheptanecarboxamide],6 µg
10,"Cc1ccc(NC(=O)C2CC(C)CCC2C(C)C)c(C)c1 (stereo not drawn) [N-(2′,4′-dimethylphenyl)-2-isopropyl-5-methylcyclohexanecarboxamide]",0.1 µg
11,CC(=O)c1ccc(NC(=O)C2CC(C)CCC2C(C)C)cc1 (stereo not drawn) [N-(4′-acetylphenyl)-2-isopropyl-5-methylcyclohexanecarboxamide],2 µg
12,CCCCC1C2C=CC(C2)C1C(=O)Nc1ccc(OC)c(O)c1 (stereo not drawn) [N-(3′-hydroxy-4′-methoxyphenyl)-3-n-butylbicyclo[2.2.1]hept-5-ene-2-carboxamide],5 µg
13,CC1CCC(C(C)C)C(C(=O)Nc2ccc(Cl)cc2)C1 (stereo not drawn) [N-(4′-chlorophenyl)-2-isopropyl-5-methylcyclohexanecarboxamide],8 µg
14,"Cc1ccc(NC(=O)C(C)(C(C)C)C(C)C)cc1C [N-(3′,4′-dimethylphenyl)-2-isopropyl-2,3-dimethylbutyramide]",3 µg
15,"COc1ccc(NC(=O)C(C)(C(C)C)C(C)C)cc1 [N-(4′-methoxyphenyl)-2-isopropyl-2,3-dimethylbutyramide]",0.5 µg
16,"COc1ccc(NC(=O)C(C)(CC(C)C)C(C)C)cc1 (stereo not drawn) [N-(4′-methoxyphenyl)-2-isopropyl-2,4-dimethylpentanamide]",2 µg
17,"COc1ccc(NC(=O)C2CC3CCC2(C)C3(C)C)cc1 (stereo not drawn) [N-(4′-methoxyphenyl)-1,7,7-trimethylbicyclo[2.2.1]heptane-2-carboxamide]",8 µg

# Tested on: not listed separately
# Test: Threshold cooling effect of p-menthane carboxylic acid esters
# Assay type: in vivo, human
# Conditions: p-menthane-COOR esters
# Text: Neurophysiological and Molecular Mechanisms of Drug Action. The procedures described previously are used in drug screening. Experimentally there are additional methods to identify peripheral antinociceptive pharmacophore-compounds on sensory nerve endings. TRP receptors are present in sensory neurons. At the molecular level, the interactions of these peripheral antinociceptive pharmacophore-compounds with various TRP receptors can be characterized. The methods for such receptor studies were described by Laus et al. (Prostate tumor nucleotide compositions and methods of detection thereof. U.S. Pat. No. 6,194,152 B1, Feb. 27, 2001), and by Bevan et al. (Vanilloid receptor-related nucleic acids and polypeptides. U.S. 2003/0157633 A1, Aug. 21, 2003) and Julius et al. (Methods of modulating cold sensory perception. U.S. 2003/0219834 A1, Nov. 27, 2003), herein incorporated by reference. In the patent by Laus et al. it is noted that activation of trp-p8 by specific agonists of this receptor may also be utilized for the treatment of prostate disorders such prostate neoplasia. The use of peripheral antinociceptive pharmacophore-compounds of this discovery for prostate disorders is also contemplated in the present patent application. Identification of Pharmacophore. […] Based on this information, the pharmacophore precursor was selected and then the -ZR″ moiety was placed on the molecule to form the peripheral antinociceptive pharmacophore compounds of this discovery with desired pharmacokinetics and adequate delivery of pharmacophore to the target.
row,Compound,Threshold Cooling Effect
1,CC1CCC(C(C)C)C(C(=O)OCC(=O)O)C1 (stereo not drawn) [glycollic acid],15 µg
2,CC(O)CO (stereo not drawn) [propylene glycol],1.4 µg
3,CC(O)C(=O)O (stereo not drawn) [lactic acid],8 µg
4,"Cc1cc(O)cc(O)c1 [3,5-dihydroxytoluene]",15 µg
5,OCCOCCOCCO [triethylene glycol],5 µg
6,OCCO [ethylene glycol],1.5 µg
7,CCOC(=O)C(C)O (stereo not drawn) [ethyl lactate],50 µg
8,"OCC#CCO [butyn-1,4-diol]",6 µg
9,OC[C@@H](O)[C@@H](O)[C@H](O)[C@@H](O)CO [sorbitol],50 µg
10,"CC(O)C(C)O (stereo not drawn) [butan-2,3-diol]",3 µg
11,OCC(O)CO [glycerol],1.2 µg
12,CC1(C)OCC(CO)O1 (stereo not drawn),11 µg
13,CC(=O)OCCOC(=O)C1CC(C)CCC1C(C)C (stereo not drawn) [2-acetoxoyethanol],33 µg
14,hexylene glycol,8 µg
15,"OC1CCCCC1O (stereo not drawn) [cyclohexan-1,2-diol]",4 µg
16,"OCCCO [propan-1,3-diol]",7 µg
17,OCCOCCO [diethylene glycol],1 µg
18,CC(C)(O)C(=O)O [2-hydroxy-2-methylpropanoic acid],20 µg
19,"OCCCCO [butan-1,4-diol]",12 µg

# Reference: patent US7417048B2, “Aryl-substituted derivatives of cycloalkyl and branched chain alkyl carboxylic acids useful as antinociceptive drugs for peripheral targets” (priority 2003, dated 2008)
